Reference: patent publication US6403343B2, “Method of producing a taxane-type diterpene and a method of obtaining cultured cells which produce the taxane-type dilterpene at a high rate” (Mitsui Chemicals, Inc., priority 1993, dated 2002)

What was measured:
Assay type in all cases: cell-based
[1] = test system: cultured cells of T. media; test: Taxane yield, T. media cultured cells with jasmonic acids added; details: 250 μM added on 14th day, 7 more days
Procedure: The procedure of Example 6 was carried out except that cultured cells of T. media were used.
The procedure of Example 13 was carried out except that cultured cells of T. media were used.
The procedure of Example 22 was carried out except that cultured cells of T. media were used.

[2] = test system: cultured cells of Taxus baccata LINN; test: Taxane-type diterpene yield and cell yield, shake culture of Taxus baccata cells with a jasmonic acid (or jasmone) added
[3] = test system: cultured cells of Taxus baccata LINN, layer of 1.07 g/ml or less; test: Same culture using cells of the specific gravity layer of 1.07 g/ml or less (Ficoll), jasmonic acids added; details: 250 μM added on 14th day, 7 more days; cells of layer of 1.07 g/ml or less
Procedure: (§1) The cells with accelerated growth rate obtained by the method of Example 1 were fractionated firstly by a stainless steel mesh and cell clusters having the size of 250-840 μm were obtained. A medium having a specific gravity of 1.07 (g/ml) was produced by the use of Ficoll and the above-mentioned cells were layered over it and centrifuged at 700 rpm for 6 minutes. The cells were fractionated into two layers according to the difference of the specific gravity. The cells contained in the layer of 1.07 g/ml or less were fractionated and washed with 2% sucrose solution three times or more, to wash off Ficoll. After the washing, 1 g (fresh weight) of the cells was transferred to an Erlenmeyer flask containing 20 ml of liquid Woody Plant Medium and shake culture was carried out at 25° C. for 14 days. […] After completing the culture, the procedure of Example 1 was carried out.
as §1, with “growth rates” for “growth rate”, “Example 8” for “Example 1”, “was inoculated” for “was transferred”
as §1, with “Example 15” for “Example 1”, “was inoculated” for “was transferred”

[4] = test system: cultured cells of Taxus brevifolia NUTT; test: Taxane yield, Taxus brevifolia cultured cells with jasmonic acids added; details: 250 μM added on 14th day, 7 more days
Procedure: After completing the culture, the procedure of Example 1 was carried out.
After completing the culture, the procedure of Example 8 was carried out.
After completing the culture, the procedure of Example 15 was carried out.

[5] = test system: cultured cells of Taxus baccata LINN; test: Growth rate and taxane yield, shake culture under controlled oxygen concentration in the gas phase, with or without methyl jasmonate; details: max oxygen in gas phase 10%; for yield of baccatin III / yield of cephalomannine / yield of taxol: cell + medium
Procedure: One gram (fresh weight) of the callus was inoculated to an Erlenmeyer flask containing 20 ml of liquid Woody Plant Medium to which the above-mentioned component had been added to give the same concentration and shake culture was carried out with a rotary shaker (amplification of 25 mm, 100 rpm) and the callus was subcultured in every 21 days to accelerate the growth rate of the callus.
One gram (fresh weight) of the cultured cells thus obtained was inoculated to an Erlenmeyer flask containing 20 ml of liquid Woody Plant Medium to which the above-mentioned component had been added to give the same concentration, and the flask was placed in a chamber (the capacity of 3000 ml) having a gas feed opening and a gas discharge opening, then the chamber was closed hermetically, and air was so mixed with nitrogen that the concentration of the oxygen in a gas to be supplied to the cells to be cultured became 4-15%, and while the gas was supplied through the feed opening at the rate of 25 ml per minute, shake culture was carried out at 25° C. for 21 days.
After completing the culture, cultured cells of Taxus baccata LINN were harvested by filtration and lyophilized, then the dry weight was measured to obtain the growth rate thereof. Taxane-type diterpenes were extracted from the dried cells with methanol and the like, and they were determined by comparing with standard taxol, cephalomannine, and baccatin III using high performance liquid chromatography to measure the yields of the taxane-type diterpenes.

[6] = 0.01 μM added on 14th day, 7 more days
[7] = 0.1 μM added on 14th day, 7 more days
[8] = 1 μM added on 14th day, 7 more days
[9] = 10 μM added on 14th day, 7 more days
[10] = 25 μM added 4 times every two days from 7th day, total 100 μM
[11] = 100 μM added on 7th day, 14 more days
[12] = 100 μM added on 14th day, 7 more days
[13] = 100 μM added on first day, 20 more days
[14] = 250 μM added on 14th day, 7 more days
[15] = 500 μM added on 14th day, 7 more days
[16] = 1000 μM added on 14th day, 7 more days

CC/C=C\C[C@H]1[C@@H](CC(=O)OC)CC[C@@H]1O [methyl cucurbate]
cell yield [1]: 12.3 g/L | yield of baccatin III [1]: 5.2 mg/L | yield of cephalomannine [1]: 0.2 mg/L | yield of taxol [1]: 3.9 mg/L | cell yield [2, 6]: 11.3 g/L | yield of baccatin III [2, 6]: 0.3 mg/L | yield of cephalomannine [2, 6]: 2.6 mg/L | yield of taxol [2, 6]: 4.3 mg/L | cell yield [2, 7]: 11.1 g/L | yield of baccatin III [2, 7]: 0.3 mg/L | yield of cephalomannine [2, 7]: 3.1 mg/L | yield of taxol [2, 7]: 5.4 mg/L | cell yield [2, 8]: 10.4 g/L | yield of baccatin III [2, 8]: 0.3 mg/L | yield of cephalomannine [2, 8]: 3.3 mg/L | yield of taxol [2, 8]: 6.7 mg/L | cell yield [2, 9]: 10.4 g/L | yield of baccatin III [2, 9]: 0.5 mg/L | yield of cephalomannine [2, 9]: 4.0 mg/L | yield of taxol [2, 9]: 11.3 mg/L | cell yield [2, 10]: 10.5 g/L | yield of baccatin III [2, 10]: 14.6 mg/L | yield of cephalomannine [2, 10]: 4.1 mg/L | yield of taxol [2, 10]: 18.2 mg/L | cell yield [2, 11]: 9.5 g/L | yield of baccatin III [2, 11]: 8.4 mg/L | yield of cephalomannine [2, 11]: 4.1 mg/L | yield of taxol [2, 11]: 16.8 mg/L | cell yield [2, 12]: 9.8 g/L | yield of baccatin III [2, 12]: 7.2 mg/L | yield of cephalomannine [2, 12]: 4.4 mg/L | yield of taxol [2, 12]: 15.7 mg/L | cell yield [2, 13]: 6.1 g/L | yield of baccatin III [2, 13]: 0.8 mg/L | yield of cephalomannine [2, 13]: 2.8 mg/L | yield of taxol [2, 13]: 3.9 mg/L | cell yield [2, 14]: 9.6 g/L | yield of baccatin III [2, 14]: 10.6 mg/L | yield of cephalomannine [2, 14]: 5.3 mg/L | yield of taxol [2, 14]: 17.7 mg/L | cell yield [2, 15]: 9.3 g/L | yield of baccatin III [2, 15]: 12.0 mg/L | yield of cephalomannine [2, 15]: 3.0 mg/L | yield of taxol [2, 15]: 13.1 mg/L | cell yield [2, 16]: 5.7 g/L | yield of baccatin III [2, 16]: 1.2 mg/L | yield of cephalomannine [2, 16]: 2.8 mg/L | yield of taxol [2, 16]: 4.2 mg/L | cell yield [3]: 9.7 g/L | yield of baccatin III [3]: 22.2 mg/L | yield of cephalomannine [3]: 3.8 mg/L | yield of taxol [3]: 29.7 mg/L | cell yield [4]: 11.0 g/L | yield of baccatin III [4]: 1.2 mg/L | yield of cephalomannine [4]: 0.3 mg/L | yield of taxol [4]: 1.3 mg/L

CCC=CCC1C(=O)CCC1CC(=O)OC (stereo not shown) [Example 66]
growth rate ([5]; methyl jasmonate 10 μM): 2.82 times | total yield of taxane ([5]; methyl jasmonate 10 μM): 14.73 mg/L | yield of baccatin III ([5]; methyl jasmonate 10 μM): 2.26 mg/L | yield of cephalomannine ([5]; methyl jasmonate 10 μM): 1.73 mg/L | yield of taxol ([5]; methyl jasmonate 10 μM): 10.24 mg/L | growth rate ([5]; methyl jasmonate 100 μM): 2.45 times | total yield of taxane ([5]; methyl jasmonate 100 μM): 36.05 mg/L | yield of baccatin III ([5]; methyl jasmonate 100 μM): 11.32 mg/L | yield of cephalomannine ([5]; methyl jasmonate 100 μM): 2.29 mg/L | yield of taxol ([5]; methyl jasmonate 100 μM): 22.44 mg/L | growth rate ([5]; methyl jasmonate 1000 μM): 1.47 times | total yield of taxane ([5]; methyl jasmonate 1000 μM): 8.61 mg/L | yield of baccatin III ([5]; methyl jasmonate 1000 μM): 2.10 mg/L | yield of cephalomannine ([5]; methyl jasmonate 1000 μM): 1.47 mg/L | yield of taxol ([5]; methyl jasmonate 1000 μM): 5.04 mg/L

COC(=O)C[C@H]1CCC(=O)[C@H]1C/C=C\CCO [methyl tuberonate]
cell yield [1]: 9.5 g/L | yield of baccatin III [1]: 10.4 mg/L | yield of cephalomannine [1]: 0.5 mg/L | yield of taxol [1]: 5.4 mg/L | cell yield [2, 6]: 14.3 g/L | yield of baccatin III [2, 6]: 0.4 mg/L | yield of cephalomannine [2, 6]: 1.3 mg/L | yield of taxol [2, 6]: 4.6 mg/L | cell yield [2, 7]: 13.5 g/L | yield of baccatin III [2, 7]: 0.5 mg/L | yield of cephalomannine [2, 7]: 1.5 mg/L | yield of taxol [2, 7]: 5.5 mg/L | cell yield [2, 8]: 13.2 g/L | yield of baccatin III [2, 8]: 0.7 mg/L | yield of cephalomannine [2, 8]: 1.8 mg/L | yield of taxol [2, 8]: 6.9 mg/L | cell yield [2, 9]: 13.0 g/L | yield of baccatin III [2, 9]: 0.9 mg/L | yield of cephalomannine [2, 9]: 2.2 mg/L | yield of taxol [2, 9]: 14.8 mg/L | cell yield [2, 10]: 12.9 g/L | yield of baccatin III [2, 10]: 13.5 mg/L | yield of cephalomannine [2, 10]: 2.3 mg/L | yield of taxol [2, 10]: 22.5 mg/L | cell yield [2, 11]: 12.5 g/L | yield of baccatin III [2, 11]: 10.5 mg/L | yield of cephalomannine [2, 11]: 2.1 mg/L | yield of taxol [2, 11]: 15.6 mg/L | cell yield [2, 12]: 12.7 g/L | yield of baccatin III [2, 12]: 12.2 mg/L | yield of cephalomannine [2, 12]: 2.4 mg/L | yield of taxol [2, 12]: 16.5 mg/L | cell yield [2, 13]: 7.1 g/L | yield of baccatin III [2, 13]: 1.0 mg/L | yield of cephalomannine [2, 13]: 1.3 mg/L | yield of taxol [2, 13]: 4.0 mg/L | cell yield [2, 14]: 12.5 g/L | yield of baccatin III [2, 14]: 14.5 mg/L | yield of cephalomannine [2, 14]: 2.2 mg/L | yield of taxol [2, 14]: 21.1 mg/L | cell yield [2, 15]: 11.6 g/L | yield of baccatin III [2, 15]: 15.0 mg/L | yield of cephalomannine [2, 15]: 2.3 mg/L | yield of taxol [2, 15]: 10.6 mg/L | cell yield [2, 16]: 7.5 g/L | yield of baccatin III [2, 16]: 1.2 mg/L | yield of cephalomannine [2, 16]: 1.8 mg/L | yield of taxol [2, 16]: 3.9 mg/L | cell yield [3]: 12.2 g/L | yield of baccatin III [3]: 17.4 mg/L | yield of cephalomannine [3]: 3.1 mg/L | yield of taxol [3]: 28.3 mg/L | cell yield [4]: 10.0 g/L | yield of baccatin III [4]: 1.4 mg/L | yield of cephalomannine [4]: 0.5 mg/L | yield of taxol [4]: 3.3 mg/L
